Test system: S. cerevisiae CIT2-GFP strain, flow cytometry fluorescence, 3 h
Assay: CIT2-GFP expression modulators in yeast, SAR follow-up, flow cytometry, cherry pick 3, dose response (AID 488825)

An EC50 of 5.72 µM was found for `CNc1nc(N)c([N+](=O)[O-])c(Nc2cccc(Cl)c2)n1` in this work.

Source: PubChem BioAssay AID488825 (NMMLSC, 2010)
